Consider 13 compounds from publication PMC10778626, “Efficacy of Novel Quaternary Ammonium and Phosphonium Salts Differing in Cation Type and Alkyl Chain Length against Antibiotic-Resistant Staphylococcus aureus” (International Journal of Molecular Sciences, 2023).

Each structure is given as a SMILES string. Where two headings read alike, the source gives them in different places.

A short description of data set [1]: Chromatographic hydrophobicity index (CHI) by UHPLC. Type of data set: physicochemical. The note with it: for CHI: LC/UV at pH 2.6, calculated from retention time with the calibration line; for chromatographic logP: back-calculated from CHI at pH 2.6: CHI LogP = 0.047 × CHI + 0.36 × HBC − 1.10. On the procedure: The chromatographic hydrophobicity index (CHI) values were determined using the retention times (tR) of the samples under study and of a mixture of standard compounds on a UHPLC NEXERA SERIES LC-40 with a Luna C18 (2) column of 150 × 4.6 mm, 5 μm (Phenomenex, Torrance, CA, USA). Stock solutions of the test compounds (10 mM) were prepared in dimethyl sulfoxide (DMSO, 99.9%; Carlo Erba) and diluted in acetonitrile/water (1:1) to obtain a final concentration of 500 μM. The mobile phase A was 1.0% (v/v) aqueous acetic acid solution (pH = 2.6), and the mobile phase B was acetonitrile. The following gradient programme was applied: 1–7 min 0–100% B, 7–17 min 100% B, 17–19 min 100–0% B, 1 mL/min flow; rt, injection volume 40 μL.
A calibration line was obtained using a mixture of the following compounds: benzimidazole, theophylline, paracetamol, caffeine, colchicine, carbamazepine, indole, propiophenone, butyrophenone, valerophenone, and heptanophenone (Table S1 and Figure S50, Supplementary Materials). The experimental CHI values of the compounds tested at pH 2.6 were then converted to the logarithm of octanol/water partition coefficient (CHI LogP) values using Equation (1). CHI LogP = 0.047 × CHI + 0.36 × HBC − 1.10 (1) where HBC is the hydrogen bond donor count.

A further data set concerns S. aureus CECT 976. Kind of data set: MIC/MBC by broth microdilution, S. aureus CECT 976. The format is cell-based. The conditions noted are these: Staphylococcus aureus, CECT976; for MIC: 24 h, 37 °C, read-out: MIC. On the procedure: The minimum inhibitory concentration (MIC) and minimum bactericidal concentration (MBC) values of all QHSs were determined by the broth microdilution method, according to the approved M7-A7 (aerobes) standards of the Clinical and Laboratory Standards Institute (CLSI) guidelines. Overnight cell cultures of S. aureus, in the exponential phase of growth, were adjusted to an optical density (OD) of 0.132 ± 0.02 (λ = 600 nm). Then, a volume of 180 µL of the cell suspension was added to sterile, flat, clear-bottomed polystyrene (PS) 96-well microtiter plates (VWR—Radnor, PA, USA), already containing 20 µL of each QHS under study at concentrations ranging from 0.0625 to 64 µg/mL. In the end, the volume of each compound never exceeded 10% (v/v) of the well volume. Microtiter plates were then incubated for 24 h at 37 °C under agitation (150 rpm; INCU-Line IL 150R incubator). Absorbance measurements were performed at the beginning (t = 0 h) and end (t = 24 h) of the incubation period using a microtiter plate absorbance reader (BMG LABTECH FLUOstar Omega). Bacterial suspensions with DMSO and without QHSs were used as negative controls. […] All tests were performed with six replicates and a minimum of three independent repeats.
Plates were incubated at 37 °C for 24 h, and growth was visually inspected. […] All tests were performed in triplicate, and with a minimum of three independent repeats.

[2] abbreviates: S. aureus CECT 976, broth microdilution.
Setting [3] is: S. aureus CECT 976, broth microdilution, plated on PCA, read-out: MBC.

For orientation: chromatographic logP means lipophilicity estimated from chromatographic retention. The term MIC denotes the least concentration at which growth counts as inhibited. In general, MBC refers to the smallest concentration meeting the test's criterion for killing. `CCCCCCCCCCCCCCCCCC[n+]1ccc(C)cc1.[Br-]` [Compound 4g, 4-Methyl-1-octadecylpyridin-1-ium bromide]: in data set [1], the CHI was 109.2 and the chromatographic logP is 4.03. Moreover, the MIC in the data set on S. aureus CECT 976 (setting [2]) is 8 mg/L. Further, the MBC with S. aureus CECT 976 (setting [3]) was found to be 16 mg/L.

Consider `CCCCCC[n+]1cccc2ccccc21.[Br-]` [Compound 5a, 1-Hexylquinolin-1-ium bromide], for which, in data set [1], the CHI is 36.98 and the chromatographic logP was 0.638. In addition, the MIC in the data set with S. aureus CECT 976 (setting [2]) is more than 64 mg/L. Also, the MBC with S. aureus CECT 976 (setting [3]) is more than 64 mg/L.

`CCCCCCCC[n+]1cccc2ccccc21.[Br-]` [Compound 5b, 1-Octylquinolin-1-ium bromide]: in data set [1], the CHI was 49.24 and the chromatographic logP was 1.21. In the data set on S. aureus CECT 976 (setting [2]), the minimal inhibitory concentration (MIC) stood at 16 mg/L. Moreover, the MBC in the data set with S. aureus CECT 976 (setting [3]) was more than 64 mg/L.

Regarding `CCCCCCCCCC[n+]1cccc2ccccc21.[Br-]` [Compound 5c, 1-Decylquinolin-1-ium bromide], in data set [1], the CHI is recorded as 61.45 and the chromatographic logP is 1.79. Moreover, the MIC with S. aureus CECT 976 (setting [2]) came to 16 mg/L. For the same compound, the MBC with S. aureus CECT 976 (setting [3]) came to 32 mg/L.

On to `CCCCCCCCCCCC[n+]1cccc2ccccc21.[Br-]` [Compound 5d, 1-Dodecylquinolin-1-ium bromide], for which, in data set [1], the CHI was 74.21 and the chromatographic logP was 2.39. In addition, in the data set with S. aureus CECT 976 (setting [2]), the MIC was determined as 4 mg/L. Further, in the data set with S. aureus CECT 976 (setting [3]), the MBC was determined as 16 mg/L.

As for `CCCCCCCCCCCCCCCC[n+]1cccc2ccccc21.[Br-]` [Compound 5f, 1-Hexadecylquinolin-1-ium bromide], in data set [1], the CHI is given as 101.1 and the chromatographic logP was 3.65. In addition, in the data set on S. aureus CECT 976 (setting [2]), the MIC amounted to 4 mg/L. In addition, the MBC with S. aureus CECT 976 (setting [3]) came out at 8 mg/L.

Consider `CCCCCCCCCCCCCCCCCC[n+]1cccc2ccccc21.[Br-]` [Compound 5g, 1-Octadecylquinolin-1-ium bromide], for which, in data set [1], the CHI was 112.9 and the chromatographic logP was 4.21. Also, in the data set with S. aureus CECT 976 (setting [2]), the MIC came out at 16 mg/L. Also, in the data set on S. aureus CECT 976 (setting [3]), the MBC came out at 16 mg/L.

Regarding `CCCCCC[n+]1ccccc1.[Br-]` [Compound 6a, 1-Hexylpyridin-1-ium bromide], in data set [1], the CHI is given as 27.07 and the chromatographic logP is 0.172. Besides, the MIC with S. aureus CECT 976 (setting [2]) was more than 64 mg/L. Besides, in the data set on S. aureus CECT 976 (setting [3]), the MBC was more than 64 mg/L.

For the compound `CCCCCCCC[n+]1ccccc1.[Br-]` [Compound 6b, 1-Octylpyridin-1-ium bromide], in data set [1], the CHI was 40.78 and the chromatographic logP was 0.817. Besides, the MIC in the data set on S. aureus CECT 976 (setting [2]) is more than 64 mg/L. Besides, in the data set with S. aureus CECT 976 (setting [3]), the minimum bactericidal concentration (MBC) is more than 64 mg/L.

For the compound `CCCCCCCCCC[n+]1ccccc1.[Br-]` [Compound 6c, 1-Decylpyridin-1-ium bromide], in data set [1], the CHI is on record as 53.07 and the chromatographic logP is 1.4. The MIC with S. aureus CECT 976 (setting [2]) is 32 mg/L. In the data set with S. aureus CECT 976 (setting [3]), the MBC is more than 64 mg/L.

`CCCCCCCCCCCC[n+]1ccccc1.[Br-]` [Compound 6d, 1-Dodecylpyridin-1-ium bromide]: the CHI in data set [1] is recorded as 65.58. In addition, in the data set on S. aureus CECT 976 (setting [2]), the minimal inhibitory concentration (MIC) stood at 2 mg/L. The MBC in the data set with S. aureus CECT 976 (setting [3]) was determined as 8 mg/L.

Turning to `CCCCCCCCCCCCCCCC[n+]1ccccc1.[Br-]` [Compound 6f, 1-Hexadecylpyridin-1-ium bromide], in data set [1], the CHI was 94.47 and the chromatographic logP is 3.34. In addition, in the data set with S. aureus CECT 976, the MBC came out at 8 mg/L.

Regarding `CCCCCCCCCCCCCCCCCC[n+]1ccccc1.[Br-]` [Compound 6g, 1-Octadecylpyridin-1-ium bromide], in data set [1], the CHI is given as 108.1 and the chromatographic logP is 3.98. Besides, the MIC with S. aureus CECT 976 (setting [2]) is 8 mg/L. In addition, the MBC in the data set on S. aureus CECT 976 (setting [3]) turned out to be 16 mg/L.
